Source: PubChem BioAssay AID248 (DTP/NCI, 2004)
Several values for one entry are separate records, joined by “and”; a condition that tells them apart may be missing. Equal entries are not always repeated. Toxic doses and inconclusive results are not listed. No stated cut-off is given here; in the data, active means T/C of 150% or more; inactive means T/C below 125%.

Test system: L1210 leukemia ip in BDF1 mice, survival T/C
Test: NCI In Vivo Anticancer Drug Screen. Data for tumor model L1210 Leukemia (intraperitoneal) in B6D2F1 (BDF1) mice
Conditions: endpoint: mean survival time, higher = longer survival
How it was run: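 Tumor was transplanted into mice, which were then dosed with test compound or vehicle alone. Survival was recorded for each group, and the treated figure was expressed relative to the control figure.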

[1] = dose: 100.0 mg/kg/injection, schedule: Q04DX003 (ip), vehicle: saline
[2] = dose: 200.0 mg/kg/injection, schedule: Q04DX003 (ip), vehicle: saline
[3] = dose: 100.0 mg/kg/injection, schedule: Q01DX009 (ip), vehicle: Klucel (hydroxypropylcellulose) (HPC)
[4] = dose: 200.0 mg/kg/injection, schedule: Q01DX009 (ip), vehicle: Klucel (hydroxypropylcellulose) (HPC)
[5] = dose: 400.0 mg/kg/injection, schedule: Q01DX009 (ip), vehicle: Klucel (hydroxypropylcellulose) (HPC)
[6] = dose: 100.0 mg/kg/injection, schedule: Q04DX002 (ip), vehicle: Klucel (hydroxypropylcellulose) (HPC)
[7] = dose: 200.0 mg/kg/injection, schedule: Q04DX002 (ip), vehicle: Klucel (hydroxypropylcellulose) (HPC)
[8] = dose: 400.0 mg/kg/injection, schedule: Q04DX002 (ip), vehicle: Klucel (hydroxypropylcellulose) (HPC)
[9] = dose: 100.0 mg/kg/injection, schedule: Q04DX003 (ip), vehicle: Klucel (hydroxypropylcellulose) (HPC)
[10] = dose: 200.0 mg/kg/injection, schedule: Q04DX003 (ip), vehicle: Klucel (hydroxypropylcellulose) (HPC)
[11] = dose: 400.0 mg/kg/injection, schedule: Q04DX003 (ip), vehicle: Klucel (hydroxypropylcellulose) (HPC)

Measured: T/C

O=C(COc1ccc(Cl)cc1C(=O)O)Nc1cccc(NC(=O)Nc2ccc(S(=O)(=O)F)cc2)c1
inactive: dose: 100.0 mg/kg/injection, schedule: Q01DX001 (ip), vehicle: Klucel (hydroxypropylcellulose) (HPC) 91 % of control | dose: 200.0 mg/kg/injection, schedule: Q01DX001 (ip), vehicle: Klucel (hydroxypropylcellulose) (HPC) 101 % of control | dose: 400.0 mg/kg/injection, schedule: Q01DX001 (ip), vehicle: Klucel (hydroxypropylcellulose) (HPC) 93 % of control

CC(=O)Nc1ccc(S(=O)(=O)Oc2ccccc2)cc1
inactive: dose: 100.0 mg/kg/injection, schedule: Q04DX003 (ip), vehicle: alcohol 98 % of control | dose: 200.0 mg/kg/injection, schedule: Q04DX003 (ip), vehicle: alcohol 98 % of control | dose: 400.0 mg/kg/injection, schedule: Q04DX003 (ip), vehicle: alcohol 108 % of control

FC(F)(F)c1nc2nc(Cl)c(Cl)nc2s1
inactive: dose: 0.5 mg/kg/injection, schedule: Q01DX009 (ip), vehicle: other 116 % of control | dose: 1.0 mg/kg/injection, schedule: Q01DX009 (ip), vehicle: other 106 % of control | dose: 2.0 mg/kg/injection, schedule: Q01DX009 (ip), vehicle: other 101 % of control | dose: 3.12 mg/kg/injection, schedule: Q01DX009 (ip), vehicle: other 114 % of control | dose: 4.0 mg/kg/injection, schedule: Q01DX009 (ip), vehicle: other 107 % of control | dose: 6.25 mg/kg/injection, schedule: Q01DX009 (ip), vehicle: other 103 % of control | dose: 12.5 mg/kg/injection, schedule: Q01DX009 (ip), vehicle: other 103 % of control | dose: 25.0 mg/kg/injection, schedule: Q01DX009 (ip), vehicle: other 101 % of control and 103 % of control

CN(C)/N=C/c1ccccn1
inactive: [1] 106 % of control | [2] 109 % of control

CCOC(=O)CNC(=O)CO
inactive: dose: 100.0 mg/kg/injection, schedule: Q01DX001 (ip), vehicle: other 101 % of control | dose: 200.0 mg/kg/injection, schedule: Q01DX001 (ip), vehicle: other 95 % of control | dose: 400.0 mg/kg/injection, schedule: Q01DX001 (ip), vehicle: other 101 % of control

CCOC(=O)c1ccc(NC(=O)Nc2nccs2)cc1
inactive: dose: 88.0 mg/kg/injection, schedule: Q01DX009 (ip), vehicle: saline with Tween-80 113 % of control | dose: 100.0 mg/kg/injection, schedule: Q01DX009 (ip), vehicle: saline with Tween-80 123 % of control | dose: 132.0 mg/kg/injection, schedule: Q01DX009 (ip), vehicle: saline with Tween-80 109 % of control | dose: 200.0 mg/kg/injection, schedule: Q01DX009 (ip), vehicle: saline with Tween-80 122 % of control | dose: 300.0 mg/kg/injection, schedule: Q01DX009 (ip), vehicle: saline with Tween-80 124 % of control

CSC(=N)c1cccc(OCCOc2ccccc2)c1
inactive: dose: 50.0 mg/kg/injection, schedule: Q01DX009 (ip), vehicle: Klucel (hydroxypropylcellulose) (HPC) 96 % of control | [3] 102 % of control | [4] 96 % of control

O=C(N/N=C/C=C/c1ccccc1)c1ccccc1O
inactive: [3] 92 % of control | [4] 89 % of control | [5] 95 % of control

CSc1ccc(NC(=O)c2ccc([N+](=O)[O-])cc2)cc1
inactive: [6] 95 % of control | [7] 95 % of control | [8] 92 % of control

O=[N+]([O-])c1nncs1
inactive: dose: 6.25 mg/kg/injection, schedule: Q04DX003 (ip), vehicle: saline 104 % of control | dose: 12.5 mg/kg/injection, schedule: Q04DX003 (ip), vehicle: saline 98 % of control | dose: 25.0 mg/kg/injection, schedule: Q04DX003 (ip), vehicle: saline 101 % of control

C(=NCCc1ccccc1)c1ccccc1B1OB(c2ccccc2C=NCCc2ccccc2)OB(c2ccccc2C=NCCc2ccccc2)O1
inactive: [3] 97 % of control | [9] 91 % of control | [4] 97 % of control | [10] 89 % of control | [5] 102 % of control | [11] 94 % of control

Nc1ccc(C(=O)O)c([N+](=O)[O-])c1
inactive: dose: 100.0 mg/kg/injection, schedule: Q01DX009 (ip), vehicle: saline 102 % of control | [1] 98 % of control | dose: 200.0 mg/kg/injection, schedule: Q01DX009 (ip), vehicle: saline 100 % of control | [2] 93 % of control | dose: 400.0 mg/kg/injection, schedule: Q01DX009 (ip), vehicle: saline 100 % of control | dose: 400.0 mg/kg/injection, schedule: Q04DX003 (ip), vehicle: saline 94 % of control

NC(c1ccccc1)(c1ccccc1)c1ccccc1
inactive: dose: 100.0 mg/kg/injection, schedule: Q01DX001 (ip), vehicle: saline 101 % of control | dose: 200.0 mg/kg/injection, schedule: Q01DX001 (ip), vehicle: saline 101 % of control | dose: 400.0 mg/kg/injection, schedule: Q01DX001 (ip), vehicle: saline 101 % of control

CCN(CCOC(=O)Nc1cc([N+](=O)[O-])ccc1C)c1ccccc1
inactive: [6] 87 % of control | [7] 94 % of control | [8] 90 % of control

CCN(C)CCC(CC=C(C)C)(C(N)=O)c1cccc2ccccc12 (stereo not given)
inactive: dose: 12.5 mg/kg/injection, schedule: Q04DX002 (ip), vehicle: saline 100 % of control | dose: 25.0 mg/kg/injection, schedule: Q04DX002 (ip), vehicle: saline 87 % of control

COc1ccc(NC(=O)Oc2ccc(Cl)c(C)c2)cc1
inactive: dose: 100.0 mg/kg/injection, schedule: Q04DX003 (ip), vehicle: saline with Tween-80 93 % of control | dose: 200.0 mg/kg/injection, schedule: Q04DX003 (ip), vehicle: saline with Tween-80 90 % of control | dose: 400.0 mg/kg/injection, schedule: Q04DX003 (ip), vehicle: saline with Tween-80 88 % of control

CC(=O)NNc1ccccc1Cl
inactive: [9] 96 % of control | [10] 117 % of control

O=C(O)CC(c1ccccc1)C(CC(=O)O)c1ccccc1 (stereo not given)
inactive: [9] 91 % of control | [10] 95 % of control | [11] 96 % of control

C(=C\c1ccc(C2=NCCN2)cc1)/c1ccc(C2=NCCN2)cc1
active: dose: 46.0 mg/kg/injection, schedule: Q01DX Z (ip), vehicle: carboxymethylcellulose (CMC) 150 % of control
inactive: dose: 11.5 mg/kg/injection, schedule: Q01DX Z (ip), vehicle: carboxymethylcellulose (CMC) 115 % of control | dose: 23.0 mg/kg/injection, schedule: Q01DX Z (ip), vehicle: carboxymethylcellulose (CMC) 119 % of control | dose: 62.0 mg/kg/injection, schedule: Q01DX Z (oral), vehicle: carboxymethylcellulose (CMC) 103 % of control | dose: 125.0 mg/kg/injection, schedule: Q01DX Z (oral), vehicle: carboxymethylcellulose (CMC) 108 % of control | dose: 250.0 mg/kg/injection, schedule: Q01DX Z (oral), vehicle: carboxymethylcellulose (CMC) 104 % of control | dose: 500.0 mg/kg/injection, schedule: Q01DX Z (oral), vehicle: carboxymethylcellulose (CMC) 101 % of control

CCOC(=O)OCc1ccco1
inactive: dose: 100.0 mg/kg/injection, schedule: Q01DX001 (ip), vehicle: carboxymethylcellulose (CMC) 94 % of control | dose: 100.0 mg/kg/injection, schedule: Q01DX009 (ip), vehicle: carboxymethylcellulose (CMC) 101 % of control and 103 % of control | dose: 100.0 mg/kg/injection, schedule: Q04DX002 (ip), vehicle: carboxymethylcellulose (CMC) 98 % of control and 100 % of control | dose: 100.0 mg/kg/injection, schedule: Q04DX003 (ip), vehicle: carboxymethylcellulose (CMC) 102 % of control | dose: 200.0 mg/kg/injection, schedule: Q01DX001 (ip), vehicle: carboxymethylcellulose (CMC) 89 % of control | dose: 200.0 mg/kg/injection, schedule: Q01DX009 (ip), vehicle: carboxymethylcellulose (CMC) 97 % of control and 109 % of control | dose: 200.0 mg/kg/injection, schedule: Q04DX002 (ip), vehicle: carboxymethylcellulose (CMC) 98 % of control and 101 % of control | dose: 200.0 mg/kg/injection, schedule: Q04DX003 (ip), vehicle: carboxymethylcellulose (CMC) 96 % of control | dose: 400.0 mg/kg/injection, schedule: Q01DX001 (ip), vehicle: carboxymethylcellulose (CMC) 110 % of control | dose: 400.0 mg/kg/injection, schedule: Q04DX002 (ip), vehicle: carboxymethylcellulose (CMC) 103 % of control and 106 % of control | dose: 400.0 mg/kg/injection, schedule: Q04DX003 (ip), vehicle: carboxymethylcellulose (CMC) 112 % of control

Oc1c(Cl)cc(C(c2cc(Cl)c(O)c(Cl)c2)c2ccccn2)cc1Cl
inactive: [9] 100 % of control | [10] 104 % of control | [11] 93 % of control
